Test results from article PMC7949251 (Journal of medicinal chemistry, 2020).

Key:
JAK2 JH2 = JAK2 JH2 (Homo sapiens, UniProt O60674, F794H/W659A/W777A); assay: Competitive fluorescence polarization
[1] = cited from earlier work

JAK2 JH2, sequence (O60674 536-812 W659A/W777A/F794H): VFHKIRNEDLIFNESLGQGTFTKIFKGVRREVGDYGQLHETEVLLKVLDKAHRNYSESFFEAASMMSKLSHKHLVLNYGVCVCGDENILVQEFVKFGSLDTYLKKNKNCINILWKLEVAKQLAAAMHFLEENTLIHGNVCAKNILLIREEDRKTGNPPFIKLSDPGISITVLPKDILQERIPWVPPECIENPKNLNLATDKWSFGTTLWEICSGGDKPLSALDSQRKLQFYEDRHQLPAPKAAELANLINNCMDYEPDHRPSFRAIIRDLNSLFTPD

Compound	octanol/water log P [1]	other results
Nc1nc(Nc2ccc(S(N)(=O)=O)cc2)nn1C(=O)Nc1ccccc1 [Compound 4, 5-amino-N-phenyl-3-((4-sulfamoylphenyl)amino)-1H-1,2,4-triazole-1-carboxamide]	–	improvement in JAK2 JH2 binding over 2 (JAK2 JH2; FP Kd relative to compound 2): 3 fold
N#Cc1ccc(Nc2nc(N)n(C(=O)Nc3ccc(OCC(=O)O)cc3)n2)cc1 [Compound 9, 2-(4-(5-amino-3-((4-cyanophenyl)amino)-1H-1,2,4-triazole-1-carboxamido)phenoxy)acetic acid]	–	boost in binding strength with JAK2 JH2 compared to 4 (JAK2 JH2; FP Kd relative to compound 4): ca. 8 fold
c1cocn1 [oxazole]	0.12	–
c1cscn1 [thiazole]	0.44	–
c1ccsc1 [thiophene]	1.81	–
furan	1.34	–
